Laboratory results taken from ChEMBL document CHEMBL4613209, “Quinolone hybrids and their anti-cancer activities: An overview” (Eur J Med Chem, 2019).

Experiments:
Format in all cases: functional, cell-based
[1] = system: SMMC-7721; test: Antiproliferative activity against human SMMC7721 cells after 24 to 72 hrs by MTT assay
[2] = system: L1210; test: Antiproliferative activity against mouse L1210 cells after 24 to 72 hrs by MTT assay
[3] = system: Hep 3B2; test: Antiproliferative activity against human Hep3B cells after 24 to 72 hrs by MTT assay
[4] = system: HL-60; test: Antiproliferative activity against human HL60 cells after 24 to 72 hrs by MTT assay
[5] = system: Hep 3B2; test: Cytotoxicity against human Hep3B cells assessed as reduction in cell viability by MTT assay
[6] = system: HL-60; test: Cytotoxicity against human HL60 cells assessed as reduction in cell viability by MTT assay
[7] = system: SMMC-7721; test: Cytotoxicity against human SMMC7721 cells assessed as reduction in cell viability by MTT assay
[8] = system: L1210; test: Cytotoxicity against mouse L1210 cells assessed as reduction in cell viability by MTT assay
[9] = system: CAPAN-1; test: Cytotoxicity against human Capan1 cells assessed as reduction in cell viability by MTT assay

IC50 [1] | IC50 [2] | IC50 [4] | SMILES | IC50 [3] | IC50 [5] | IC50 [6] | IC50 [7] | IC50 [8] | IC50 [9]
1.4 µM | 1.6 µM | 4.2 µM | CC1COc2c(N3CCN(C)CC3)c(F)cc3c(=O)c(-c4nnc(N/N=C/c5ccc(C(=O)O)cc5)[nH]4)cn1c23 (configuration not stated) | 1.4 to 52.3 µM |  |  |  |  | 
1.4 to 52.3 µM | 1.4 to 52.3 µM | 1.4 to 52.3 µM | COc1ccc(/C=N/NC(=O)CSc2nnc(-c3cn4c5c(c(N6CCN(C)CC6)c(F)cc5c3=O)OCC4C)[nH]2)cc1 (configuration not stated) | 1.4 to 52.3 µM |  |  |  |  | 
1.4 to 52.3 µM | 1.4 to 52.3 µM | 1.4 to 52.3 µM | CC1COc2c(N3CCN(C)CC3)c(F)cc3c(=O)c(-c4nnc(N/N=C/c5ccc(F)cc5)[nH]4)cn1c23 (configuration not stated) | 1.4 to 52.3 µM |  |  |  |  | 
 |  |  | CC1COc2c(N3CCN(C)CC3)c(F)cc3c(=O)c(-c4nc5scc(-c6ccc(O)cc6)n5n4)cn1c23 (configuration not stated) |  | 3.6 to 56.8 µM | 3.6 to 56.8 µM | 3.6 to 56.8 µM | 3.6 to 56.8 µM | 3.6 to 56.8 µM
 |  |  | CCn1cc(-c2nc3scc(-c4ccccc4)n3n2)c(=O)c2cc(F)c(N3CCN(C)CC3)cc21 |  | 3.6 to 56.8 µM | 3.6 to 56.8 µM | 3.6 to 56.8 µM | 3.6 to 56.8 µM | 3.6 to 56.8 µM
 |  |  | CN1CCN(c2cc3c(cc2F)c(=O)c(-c2nc4scc(-c5ccc(Br)cc5)n4n2)cn3C2CC2)CC1 |  | 3.6 to 56.8 µM | 3.6 to 56.8 µM | 3.6 to 56.8 µM | 3.6 to 56.8 µM | 3.6 to 56.8 µM
 |  |  | CCn1cc(-c2nc(SCc3nnc(-c4ccc([N+](=O)[O-])cc4)o3)n(CN(C)C)n2)c(=O)c2cc(F)c(N3CCN(C)CC3)cc21 |  | 1.5 to 24.5 µM | 1.5 to 24.5 µM | 1.5 to 24.5 µM | 1.5 to 24.5 µM | 1.5 to 24.5 µM
 |  |  | CCn1cc(-c2nc3scc(-c4ccc5c(c4)OCO5)n3n2)c(=O)c2cc(F)c(N3CCN(C)CC3)cc21 |  | 3.6 to 56.8 µM | 3.6 to 56.8 µM | 3.6 to 56.8 µM | 3.6 to 56.8 µM | 3.6 to 56.8 µM
 |  |  | CCn1cc(-c2nnc(SCc3nnc(-c4ccc([N+](=O)[O-])cc4)o3)[nH]2)c(=O)c2cc(F)c(N3CCN(C)CC3)cc21 |  | 3.8 to 35.2 µM | 3.8 to 35.2 µM | 3.8 to 35.2 µM | 3.8 to 35.2 µM | 3.8 to 35.2 µM
 |  |  | CCn1cc(-c2nc3scc(-c4ccc(C)cc4)n3n2)c(=O)c2cc(F)c(N3CCN(C)CC3)cc21 |  | 3.6 to 56.8 µM | 3.6 to 56.8 µM | 3.6 to 56.8 µM | 3.6 to 56.8 µM | 3.6 to 56.8 µM
 |  |  | CCn1cc(-c2nc3scc(-c4ccc(Cl)cc4)n3n2)c(=O)c2cc(F)c(N3CCN(C)CC3)cc21 |  | 3.6 to 56.8 µM | 3.6 to 56.8 µM | 3.6 to 56.8 µM | 3.6 to 56.8 µM | 3.6 to 56.8 µM
 |  |  | CCn1cc(-c2nc(SCc3nnc(-c4ccc(F)cc4)o3)n(CN(C)C)n2)c(=O)c2cc(F)c(N3CCN(C)CC3)cc21 |  | 1.5 to 5.2 µM | 1.5 to 5.2 µM | 1.5 to 5.2 µM | 1.5 to 5.2 µM | 1.5 to 5.2 µM
 |  |  | CCn1cc(-c2nc3scc(-c4ccccc4OC)n3n2)c(=O)c2cc(F)c(N3CCN(C)CC3)cc21 |  | 3.6 to 56.8 µM | 3.6 to 56.8 µM | 3.6 to 56.8 µM | 3.6 to 56.8 µM | 3.6 to 56.8 µM
 |  |  | CCn1cc(-c2nc(SCc3nnc(-c4ccc(OC)c(OC)c4)o3)n(CN(C)C)n2)c(=O)c2cc(F)c(N3CCN(C)CC3)cc21 |  | 1.5 to 24.5 µM | 1.5 to 24.5 µM | 1.5 to 24.5 µM | 1.5 to 24.5 µM | 1.5 to 24.5 µM
 |  |  | CCn1cc(-c2nnc(SCc3nnc(-c4ccc(C)cc4)o3)[nH]2)c(=O)c2cc(F)c(N3CCN(C)CC3)cc21 |  | 3.8 to 35.2 µM | 3.8 to 35.2 µM | 3.8 to 35.2 µM | 3.8 to 35.2 µM | 3.8 to 35.2 µM
 |  |  | CCn1cc(-c2nc3scc(-c4ccc(OC)cc4)n3n2)c(=O)c2cc(F)c(N3CCN(C)CC3)cc21 |  | 3.6 to 56.8 µM | 3.6 to 56.8 µM | 3.6 to 56.8 µM | 3.6 to 56.8 µM | 3.6 to 56.8 µM

IC50 [1] | IC50 [2] | IC50 [4] | SMILES | IC50 [3] | IC50 [5] | IC50 [6] | IC50 [7] | IC50 [8] | IC50 [9]
 |  |  | CCn1cc(-c2nc(SCc3nnc(-c4ccccc4OC)o3)n(CN(C)C)n2)c(=O)c2cc(F)c(N3CCN(C)CC3)cc21 |  | 1.5 to 24.5 µM | 1.5 to 24.5 µM | 1.5 to 24.5 µM | 1.5 to 24.5 µM | 1.5 to 24.5 µM
 |  |  | CCn1cc(-c2nc(SCc3nnc(-c4ccc(OC)cc4)o3)n(CN(C)C)n2)c(=O)c2cc(F)c(N3CCN(C)CC3)cc21 |  | 1.5 to 24.5 µM | 1.5 to 24.5 µM | 1.5 to 24.5 µM | 1.5 to 24.5 µM | 1.5 to 24.5 µM
 |  |  | COc1ccc(-c2csc3nc(-c4cn(C5CC5)c5cc(N6CCN(C)CC6)c(F)cc5c4=O)nn23)cc1 |  | 3.6 to 56.8 µM | 3.6 to 56.8 µM | 3.6 to 56.8 µM | 3.6 to 56.8 µM | 3.6 to 56.8 µM
 |  |  | CCn1cc(-c2nnc(SCc3nnc(-c4ccc(F)cc4)o3)[nH]2)c(=O)c2cc(F)c(N3CCN(C)CC3)cc21 |  | 3.8 to 35.2 µM | 3.8 to 35.2 µM | 3.8 to 35.2 µM | 3.8 to 35.2 µM | 3.8 to 35.2 µM
 |  |  | CCn1cc(-c2nc(SCc3nnc(-c4ccc(C)cc4)o3)n(CN(C)C)n2)c(=O)c2cc(F)c(N3CCN(C)CC3)cc21 |  | 1.5 to 24.5 µM | 1.5 to 24.5 µM | 1.5 to 24.5 µM | 1.5 to 24.5 µM | 1.5 to 24.5 µM
 |  |  | CN1CCN(c2cc3c(cc2F)c(=O)c(-c2nc4scc(-c5ccc(Cl)cc5)n4n2)cn3C2CC2)CC1 |  | 3.6 to 56.8 µM | 3.6 to 56.8 µM | 3.6 to 56.8 µM | 3.6 to 56.8 µM | 3.6 to 56.8 µM
 |  |  | CC1COc2c(N3CCN(C)CC3)c(F)cc3c(=O)c(-c4nc5scc(-c6ccc(Cl)cc6)n5n4)cn1c23 (configuration not stated) |  | 3.6 to 56.8 µM | 3.6 to 56.8 µM | 3.6 to 56.8 µM | 3.6 to 56.8 µM | 3.6 to 56.8 µM
 |  |  | CCn1cc(-c2nc3scc(-c4ccccc4O)n3n2)c(=O)c2cc(F)c(N3CCN(C)CC3)cc21 |  | 3.6 to 56.8 µM | 3.6 to 56.8 µM | 3.6 to 56.8 µM | 3.6 to 56.8 µM | 3.6 to 56.8 µM
 |  |  | CN1CCN(c2cc3c(cc2F)c(=O)c(-c2nc4scc(-c5ccc(F)cc5)n4n2)cn3C2CC2)CC1 |  | 3.6 to 56.8 µM | 3.6 to 56.8 µM | 3.6 to 56.8 µM | 3.6 to 56.8 µM | 3.6 to 56.8 µM
 |  |  | CCn1cc(-c2nc(SCc3nnc(-c4ccc(Cl)cc4)o3)n(CN(C)C)n2)c(=O)c2cc(F)c(N3CCN(C)CC3)cc21 |  | 1.5 to 24.5 µM | 1.5 to 24.5 µM | 1.5 to 24.5 µM | 1.5 to 24.5 µM | 1.5 to 24.5 µM
 |  |  | CN1CCN(c2cc3c(cc2F)c(=O)c(-c2nc4scc(-c5ccccc5)n4n2)cn3C2CC2)CC1 |  | 3.6 to 56.8 µM | 3.6 to 56.8 µM | 3.6 to 56.8 µM | 3.6 to 56.8 µM | 3.6 to 56.8 µM
 |  |  | CC1COc2c(N3CCN(C)CC3)c(F)cc3c(=O)c(-c4nc5scc(-c6ccc(F)cc6)n5n4)cn1c23 (configuration not stated) |  | 3.6 to 56.8 µM | 3.6 to 56.8 µM | 3.6 to 56.8 µM | 3.6 to 56.8 µM | 3.6 to 56.8 µM
 |  |  | COc1ccccc1-c1csc2nc(-c3cn4c5c(c(N6CCN(C)CC6)c(F)cc5c3=O)OCC4C)nn12 (configuration not stated) |  | 3.6 to 56.8 µM | 3.6 to 56.8 µM | 3.6 to 56.8 µM | 3.6 to 56.8 µM | 3.6 to 56.8 µM
 |  |  | CCn1cc(-c2nc3scc(-c4ccc(OC)c(O)c4)n3n2)c(=O)c2cc(F)c(N3CCN(C)CC3)cc21 |  | 3.6 to 56.8 µM | 3.6 to 56.8 µM | 3.6 to 56.8 µM | 3.6 to 56.8 µM | 3.6 to 56.8 µM
 |  |  | Cc1ccc(-c2csc3nc(-c4cn5c6c(c(N7CCN(C)CC7)c(F)cc6c4=O)OCC5C)nn23)cc1 (configuration not stated) |  | 3.6 to 56.8 µM | 3.6 to 56.8 µM | 3.6 to 56.8 µM | 3.6 to 56.8 µM | 3.6 to 56.8 µM
 |  |  | CC1COc2c(N3CCN(C)CC3)c(F)cc3c(=O)c(-c4nc5scc(-c6ccc7c(c6)OCO7)n5n4)cn1c23 (configuration not stated) |  | 3.6 to 56.8 µM | 3.6 to 56.8 µM | 3.6 to 56.8 µM | 3.6 to 56.8 µM | 3.6 to 56.8 µM
